Assay results reported in the supplement of paper PMC11208160.

Experiment: recombinant UMI read abundance after kanamycin selection (control-corrected) (log10(CPM+1)); higher = more efficient recombination; extreme values may be limits of the assay; sequences stand for … in AGTGCAGAGAAAATCGGCCAGTTTTCTCTGCCTGCAGTCCGCATGCCGTGGGACCCCTTGGGTTCTAACCTGTTGCCTAGATTTATGCAGCGGACTGCCTTTCTCCCAAAGTGATAAACCGG…AGGTTGGTTTCACT; site = the 11-nt donor
Description: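 Pooled E. coli donor-specificity screen for the IS621 bridge recombinase. Each library member carries a reprogrammed 11-nt donor and a full-length LE bridge RNA expressed in cis from the natural promoter, with a paired donor-binding loop (8-nt LDG + 4-nt RDG) and a target-binding loop fixed to T5. It is co-electroporated with a T5 target plasmid; recombinase is induced with 0.07 mM IPTG and recombinants are selected on kanamycin. UMIs are counted as CPM, averaged over two biological replicates and corrected by the unselected control. Molecule = full bridge RNA written as DNA, built from the T5 scaffold: LDG = donor specificity nt 1-8, RDG = reverse complement of nt 8-11.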
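Further: IS621 bridge recombinase in Escherichia coli cells against a fixed T5 target plasmid.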

| Sequence | recombinant UMI read abundance (log10) |
| --- | --- |
| AGAGGGTCATGGACCGGTTTTCCCGGTAATCCGTATTTGGT (site AGAGGGTCTAC) | 2.54 |
| AGAGGTCCATGGACCGGTTTTCCCGGTAATCCGTATTTGTG (site AGAGGTCCTCA) | 0.00302 |
| AGAGTACCATGGACCGGTTTTCCCGGTAATCCGTATTTGCA (site ACAGTATCTTG) | 1.61 |
| AGAGTACCATGGACCGGTTTTCCCGGTAATCCGTATTTGCA (site AGAGTACCTTG) | 0 |
| AGAGTTACATGGACCGGTTTTCCCGGTAATCCGTATTTGGC (site AGAGTTACTGC) | 2.43 |
| AGATATACATGGACCGGTTTTCCCGGTAATCCGTATTTGTT (site AGATATACTAA) | 1.74 |
| AGATCATCATGGACCGGTTTTCCCGGTAATCCGTATTTGCA (site AGATCATCTTG) | 2.25 |
| AGATCATCATGGACCGGTTTTCCCGGTAATCCGTATTTGCA (site CGATCATCTAG) | 0 |
| AGATCTACATGGACCGGTTTTCCCGGTAATCCGTATTTGTG (site AAATCTACTCA) | 0.223 |
| AGATCTACATGGACCGGTTTTCCCGGTAATCCGTATTTGTG (site ACATCTACTCA) | 0.0151 |
| AGATCTACATGGACCGGTTTTCCCGGTAATCCGTATTTGTG (site AGATCTACTCA) | 0.215 |
| AGATCTACATGGACCGGTTTTCCCGGTAATCCGTATTTGTG (site ATATCTACTCA) | 0.00795 |
| AGATCTTCATGGACCGGTTTTCCCGGTAATCCGTATTTGCT (site AGATCTTCTAG) | 1.45 |
| AGATCTTCATGGACCGGTTTTCCCGGTAATCCGTATTTGCT (site CGATCATCTAG) | 0 |
| AGATGTACATGGACCGGTTTTCCCGGTAATCCGTATTTGAC (site AGATGTACTGT) | 1.96 |
| AGATTCCCATGGACCGGTTTTCCCGGTAATCCGTATTTGTG (site AGATTCCCTCA) | 0.348 |

| Sequence | recombinant UMI read abundance (log10) |
| --- | --- |
| AGATTCCCATGGACCGGTTTTCCCGGTAATCCGTATTTGTG (site AGCTTCCCTCA) | 0.0129 |
| AGATTCCCATGGACCGGTTTTCCCGGTAATCCGTATTTGTG (site AGGTTCCCTCA) | 0.0134 |
| AGATTCCCATGGACCGGTTTTCCCGGTAATCCGTATTTGTG (site AGTTTCCCTCA) | 0.0189 |
| AGCAAGACATGGACCGGTTTTCCCGGTAATCCGTATTTGCA (site AGAAAGACTTG) | 1.86 |
| AGCAAGACATGGACCGGTTTTCCCGGTAATCCGTATTTGCA (site AGCAAGACTTG) | 2.01 |
| AGCAAGACATGGACCGGTTTTCCCGGTAATCCGTATTTGCA (site AGGAAGACTTG) | 0.969 |
| AGCAAGACATGGACCGGTTTTCCCGGTAATCCGTATTTGCA (site AGTAAGACTTG) | 0.542 |
| AGCACATCATGGACCGGTTTTCCCGGTAATCCGTATTTGGG (site AGCACATCTCC) | 0.0655 |
| AGCACCACATGGACCGGTTTTCCCGGTAATCCGTATTTGCA (site AGCACCACTTG) | 2.15 |
| AGCACGACATGGACCGGTTTTCCCGGTAATCCGTATTTGTC (site AGCACGACTGA) | 1.47 |
| AGCATAGCATGGACCGGTTTTCCCGGTAATCCGTATTTGTT (site AGCATAGCTAA) | 1.99 |
| AGCATAGCATGGACCGGTTTTCCCGGTAATCCGTATTTGTT (site AGCCTAGCTAA) | 0.0149 |
| AGCATAGCATGGACCGGTTTTCCCGGTAATCCGTATTTGTT (site AGCGTAGCTAA) | 0.0357 |
| AGCATAGCATGGACCGGTTTTCCCGGTAATCCGTATTTGTT (site AGCTTAGCTAA) | 0.00966 |
| AGCCAAACATGGACCGGTTTTCCCGGTAATCCGTATTTGAG (site AGCCAAACTCT) | 1.88 |
| AGCCAATCATGGACCGGTTTTCCCGGTAATCCGTATTTGGA (site AGCCAATCTTC) | 1.67 |
